Assay results: ChEMBL document CHEMBL5726506, “Heterocyclic kinase inhibitors” (2017)
pIC50: −log10 of the molar value.

Assay: Inhibition Assay: Class I PI3-Ks can be either purchased (p110α/p85α, p110β/p85α, p110δ/p85α from Upstate, and p110γ from Sigma) or expressed as previously described (Knight et al., 2004). IC50 values are measured using either a standard TLC assay for lipid kinase activity (described below) or a high-throughput membrane capture assay. Kinase reactions are performed by preparing a reaction mixture containing kinase, inhibitor (2% DMSO final concentration), buffer (25 mM HEPES, pH 7.4, 10 mM MgCl2), and freshly sonicated phosphatidylinositol (100 μg/ml). Reactions are initiated by the addition of ATP containing 10 μCi of γ-32P-ATP to a final concentration 10 or 100 μM and allowed to proceed for 5 minutes at room temperature. For TLC analysis, reactions are then terminated by the addition of 105 l 1N HCl followed by 160 μl CHCl3:MeOH (1:1). The biphasic mixture is vortexed, briefly centrifuged, and the organic phase is transferred to a new tube using a gel loading pipette tip precoated with CHCl3. This extract is spotted on TLC plates and developed for 3-4 hours in a 65:35 solution of n-propanol:1M acetic acid. The TLC plates are then dried, exposed to a phosphorimager screen (Storm, Amersham), and quantitated. For each compound, kinase activity is measured at 10-12 inhibitor concentrations representing two-fold dilutions from the highest concentration tested (typically, 200 μM).

Row | pIC50 | Compound
1 | < 6.00 | CN1CCN(c2nc3ccccc3cc2Cn2nc(-c3cc(O)cc(F)c3)c3c(N)ncnc32)CC1
2 | < 6.00 | Nc1nc2ccc(-c3nn(Cc4cc5ccccc5nc4-c4ccccc4C(F)(F)F)c4ncnc(N)c34)cc2[nH]1
